The values that follow come from the NIST ThermoML archive (doi:10.1016/j.jct.2015.07.034).

Numbers after ± are expanded uncertainties.

The conditions of this series: for Normal melting temperature: DTA.

`C[N+](C)(C)CCO.O=S(=O)([N-]S(=O)(=O)C(F)(F)F)C(F)(F)F` [choline bis(trifluoromethylsulfonyl)imide]: the Normal melting temperature (Crystal 1) is 33.00 ± 2 °C. In addition, the Triple point temperature (Crystal 2, DSC) is 275.15 ± 2 K and the Triple point temperature (Metastable crystal, DSC) is reported as 300.15 ± 2 K.
As to `CC[n+]1ccccc1.CS(=O)(=O)[O-]` [1-ethylpyridinium methanesulfonate], the Normal melting temperature (Crystal) was 62.00 ± 2 °C.
As to `CCn1cc[n+](C)c1.O=S(=O)([N-]S(=O)(=O)C(F)(F)C(F)(F)F)C(F)(F)C(F)(F)F`, the Normal melting temperature (Crystal) came out at 16.00 ± 2 °C. For the same compound, the Glass transition temperature (Glass, DSC) is -52.00 ± 2 °C.
On to `CC[n+]1ccccc1.O=S(=O)([O-])C(F)(F)F` [1-ethylpyridinium triflate], for which the Normal melting temperature (Crystal 1) worked out at 32.00 ± 2 °C. For the same compound, the Triple point temperature (Crystal 2, DSC) is on record as 266.15 ± 2 K.
The like results for `CC[n+]1ccccc1.O=S(=O)([N-]S(=O)(=O)C(F)(F)F)C(F)(F)F` [1-ethylpyridinium bis[(trifluoromethyl)sulfonyl]imide] were, in that order, 32.00 ± 2 °C and 294.15 ± 2 K.
As to `CCn1cc[n+](C)c1.O=S(=O)([O-])C(F)(F)F` [1-ethyl-3-methylimidazolium trifluoromethanesulfonate], for the setting “Crystal”, the Normal melting temperature was -14.00 ± 2 °C.
